Measured values reported in patent publication US7947696B2, “2-amino-4-phenylquinazoline derivatives and the use thereof as HSP90 modulators” (Merck Patent GmbH, priority 2005, dated 2011).
Structures can show the parent of a compound that is named as a salt.

target: T1, Recombinant human HSP90α (Homo sapiens, UniProt P07900); assay: radioligand filter binding test, competition with [3H]17AAG for HSP90; conditions: [3H]17AAG 0.08 μM, HSP90 1.5 μg/assay, 22° C., 30 min, pH 7.0
T1 construct: host or cells: E. coli
Excerpt: The binding of geldanamycin or 17-allylamino-17-demethoxygeldanamycin (17AAG) to HSP90 and competitive inhibition thereof can be utilised in order to determine the inhibitory activity of the compounds according to the invention (Carreras et al. 2003, Chiosis et al. 2002).
In the specific case, a radioligand filter binding test is used. The radioligand used here is tritium-labelled 17-allylaminogeldanamycin, [3H]17AAG. This filter binding test allows a targeted search for inhibitors which interfere with the ATP binding site.
Recombinant human HSP90α(E. coli expressed, 95% purity); [3H]17AAG (17-allylaminogeldanamycin, [allylamino-2,3-^3H. Specific activity: 1.11×10^12 Bq/mmol (Moravek, MT-1717); HEPES filter buffer (50 mM HEPES, pH 7.0, 5 mM MgCl2, BSA 0.01%) Multiscreen FB (1 μm) filter plate (Millipore, MAFBNOB 50).
The 96-well microtitre filter plates are firstly irrigated and coated with 0.1% of polyethylenimine.
The test is carried out under the following conditions: • Reaction temperature 22° C. • Reaction time: 30 min., shaking at 800 rpm • Test volume: 50 μl • Final concentrations: • 50 mM HEPES HCl, pH 7.0, 5 mM MgCl2, 0.01% (w/v) BSA • HSP90:1.5 μg/assay • [3H]17AAG: 0.08 μM.
At the end of the reaction, the supernatant in the filter plate is removed by suction with the aid of a vacuum manifold (Multiscreen Separation System, Millipore), and the filter is washed twice.
The filter plates are then measured in a beta counter (Microbeta, Wallac) with scintillator (Microscint 20, Packard).
“% of control” is determined from the “counts per minutes” values and the IC-50 value of a compound is calculated therefrom.

Structure (SMILES) | IC50
COC(=O)c1cccc(COc2cc(-c3nc(N)nc4ccc(Cl)cc34)ccc2OC)c1 [Compound A108, 2-amino-6-chloro-4-[3-(3-methoxycarbonylbenzyloxy)-4-methoxyphenyl]quinazoline] | 950 nM
COC(=O)c1ccc(COc2cc(-c3nc(N)nc4ccc(Cl)cc34)ccc2OC)cc1 [Compound A109, 2-amino-6-chloro-4-[3-(4-methoxycarbonylbenzyloxy)-4-methoxyphenyl]quinazoline] | 800 nM
COc1ccc(-c2nc(N)nc3ccc(Cl)cc23)cc1OCCCC(=O)O [Compound A111, 2-amino-6-chloro-4-[3-(3-carboxypropoxy)-4-methoxyphenyl]quinazoline sodium salt] | 580 nM
COc1ccc(-c2nc(N)nc3ccc(Cl)cc23)cc1OCc1cccc(C(=O)O)c1 [Compound A112, 2-amino-6-chloro-4-[3-(3-carboxybenzyloxy)-4-methoxyphenyl]quinazoline sodium salt] | 470 nM
COc1ccc(-c2nc(N)nc3ccc(Cl)cc23)cc1OCc1ccc(C(=O)O)cc1 [Compound A113, 2-amino-6-chloro-4-[3-(4-carboxybenzyloxy)-4-methoxyphenyl]quinazoline sodium salt] | 370 nM
COc1ccc(-c2nc(N)nc3ccc(Cl)cc23)cc1OC [Compound A134, 2-amino-6-chloro-4-(3,4-dimethoxyphenyl)quinazoline] | 550 nM
COc1ccc(-c2nc(N)nc3ccc(Cl)cc23)cc1OCc1ccc(-c2nnn[nH]2)cc1 [Compound A138, 2-amino-6-chloro-4-{3-[4-(1H-tetrazol-5-yl)benzyloxy]-4-methoxyphenyl}quinazoline] | 540 nM
